Laboratory results as given in ChEMBL document CHEMBL3046252, “Synthesis and herbicidal potential of substituted aurones” (2012).

Experiments:
Type in all cases: functional
[1] = test system: Brassica rapa subsp. oleifera; assay: Herbicidal activity against Brassica rapa subsp. oleifera assessed as inhibition of root growth at 1000 ug/ml after 65 hr by rape cup test; conditions: read-out: GI
[2] = test system: Brassica rapa subsp. oleifera; assay: Herbicidal activity against Brassica rapa subsp. oleifera assessed as inhibition of root growth at 100 ug/ml after 65 hr by rape cup test; conditions: read-out: GI
Echinochloa crus-galli [3] = assay: Herbicidal activity against Echinochloa crus-galli (barnyard grass) plants assessed as inhibition of seedling growth at 100 ug/ml after 65 hr by barnyard cup test; conditions: read-out: GI
Echinochloa crus-galli [4] = assay: Herbicidal activity against Echinochloa crus-galli (barnyard grass) plants assessed as inhibition of seedling growth at 1000 ug/ml after 65 hr by barnyard cup test; conditions: read-out: GI
[5] = test system: Brassica rapa subsp. oleifera; assay: Herbicidal activity against Brassica rapa subsp. oleifera assessed as inhibition of root growth at 10 ug/ml after 65 hr by rape cup test; conditions: read-out: GI
Digitaria sanguinalis [6] = assay: Herbicidal activity against Digitaria sanguinalis (hairy crabgrass) assessed as germination rate at 1000 ug/ml measured on second day post dose (reference value: 100%)
Paraixeris denticulata [7] = assay: Herbicidal activity against Paraixeris denticulata assessed as germination rate at 1000 ug/ml measured on first day post dose (reference value: 30.8 +/- 1.2%)
Digitaria sanguinalis [8] = assay: Herbicidal activity against Digitaria sanguinalis (hairy crabgrass) assessed as germination rate at 1000 ug/ml measured on first day post dose (reference value: 0%)
Echinochloa crus-galli [9] = assay: Herbicidal activity against Echinochloa crus-galli (barnyard grass) plants assessed as germination rate at 1000 ug/ml measured on first day post dose (reference value: 49.1 +/- 1.6%)
Echinochloa crus-galli [10] = assay: Herbicidal activity against Echinochloa crus-galli (barnyard grass) plants assessed as germination rate at 1000 ug/ml measured on second day post dose (reference value: 100%)
Paraixeris denticulata [11] = assay: Herbicidal activity against Paraixeris denticulata assessed as germination rate at 1000 ug/ml measured on fourth day post dose (reference value: 100%)
Paraixeris denticulata [12] = assay: Herbicidal activity against Paraixeris denticulata assessed as germination rate at 1000 ug/ml measured on third day post dose (reference value: 97.4 +/- 0.6%)
Digitaria sanguinalis [13] = assay: Herbicidal activity against Digitaria sanguinalis (hairy crabgrass) assessed as germination rate at 1000 ug/ml measured on third day post dose (reference value: 100%)
Paraixeris denticulata [14] = assay: Herbicidal activity against Paraixeris denticulata assessed as germination rate at 1000 ug/ml measured on second day post dose (reference value: 76.7 +/- 0.3%)

Row | Compound | inhibition of growth at 1000 µg/mL [1] | inhibition of growth at 100 µg/mL [2] | inhibition of growth at 100 µg/mL (Echinochloa crus-galli [3]) | inhibition of growth at 1000 µg/mL (Echinochloa crus-galli [4]) | inhibition of growth at 10 µg/mL [5] | Activity (Digitaria sanguinalis [6]) | Activity (Paraixeris denticulata [7]) | Activity (Digitaria sanguinalis [8]) | Activity (Echinochloa crus-galli [9]) | Activity (Echinochloa crus-galli [10]) | Activity (Paraixeris denticulata [11]) | Activity (Paraixeris denticulata [12]) | Activity (Digitaria sanguinalis [13]) | Activity (Paraixeris denticulata [14])
1 | COc1cc(OC)c2c(c1)O/C(=C\c1cccc(F)c1)C2=O | 82.1% | 57.8% | 14.4% | 43.8% |  |  |  |  |  |  |  |  |  | 
2 | COc1cc(/C=C2\Oc3cc(O)cc(O)c3C2=O)cc(OC)c1OC | 83.8% | 0% | 5.2% | 68.7% |  |  |  |  |  |  |  |  |  | 
3 | COc1cc(OC)c2c(c1)O/C(=C\c1ccc(F)cc1)C2=O | 74.2% | 64.2% | 0% | 5% | 50.6% |  |  |  |  |  |  |  |  | 
4 | Cc1ccc(/C=C2\Oc3cc(O)cc(O)c3C2=O)cc1 | 78.2% | 44.3% | 5% | 44.2% |  |  |  |  |  |  |  |  |  | 
5 | O=C1/C(=C/c2ccc(F)cc2)Oc2cc(O)cc(O)c21 | 42.3% | 39.1% | 5% | 20% |  |  |  |  |  |  |  |  |  | 
6 | CC(C)(C)c1ccc(/C=C2\Oc3cc(O)cc(O)c3C2=O)cc1 | 87.5% | 9.5% | 1.5% | 39.6% |  |  |  |  |  |  |  |  |  | 
7 | COc1cc(/C=C2\Oc3cc(O)cc(O)c3C2=O)ccc1O | 98.4% | 63.3% | 9.5% | 23.3% |  | 35.1% | 14.3% | 0% | 16.9% | 100% | 100% | 94.9% | 100% | 82.4%
8 | COc1ccc(/C=C2\Oc3cc(O)cc(O)c3C2=O)cc1 | 90.8% | 63.7% | 10% | 28.8% |  |  |  |  |  |  |  |  |  | 
9 | O=C1/C(=C/c2ccc(O)cc2)Oc2cc(O)cc(O)c21 | 72.1% | 55.2% | 15% | 57.9% |  |  |  |  |  |  |  |  |  | 
10 | COc1cc(/C=C2\Oc3cc(O)cc(O)c3C2=O)ccc1OCc1ccccc1 | 87.9% | 46.8% | 9.7% | 38.6% |  |  |  |  |  |  |  |  |  | 
11 | COc1cc(/C=C2\Oc3cc(O)cc(O)c3C2=O)cc(OC)c1OCc1ccccc1 | 75.9% | 48.8% | 15.2% | 36.9% |  |  |  |  |  |  |  |  |  | 
12 | COc1cc(OC)c2c(c1)O/C(=C\c1cccc(OC)c1OC)C2=O | 51.4% | 34.7% | 25.5% | 42.6% |  |  |  |  |  |  |  |  |  | 
13 | COc1cc(OC)c2c(c1)O/C(=C\c1ccco1)C2=O | 94.9% | 75.9% | 7.8% | 42.5% | 31.6% | 35% |  | 0% | 23.7% | 100% |  |  | 100% | 
14 | COc1cc(OC)c2c(c1)O/C(=C\c1ccc(OCc3ccccc3)c(OC)c1)C2=O | 68% | 54% | 8.4% | 44.4% |  |  |  |  |  |  |  |  |  | 
15 | CCOc1cc(OCC)c2c(c1)O/C(=C\c1ccccc1)C2=O | 71.3% | 37.5% | 8% | 27.6% |  |  |  |  | 17.7% | 100% |  |  |  | 
16 | CCOc1cc(OCC)c2c(c1)O/C(=C\c1ccc(OC)cc1)C2=O | 17.7% | 0% | 10% | 35% |  |  |  |  |  |  |  |  |  | 
17 | COc1cc(/C=C2\Oc3cc(OC(=O)c4ccccc4)cc(OC(=O)c4ccccc4)c3C2=O)cc(OC)c1OCc1ccccc1 | 77.1% | 47.6% | 5% | 19.6% |  |  |  |  |  |  |  |  |  | 
18 | COc1cc2c(c(OC)c1C)C(=O)/C(=C/c1ccccc1)O2 | 82.6% | 30.5% | 15% | 33.5% |  | 68.6% |  | 0% | 19.5% | 100% |  |  | 100% | 
19 | COc1ccc(/C=C2\Oc3cc(OC)c(C)c(OC)c3C2=O)cc1OC | 83.8% | 40.1% | 16.8% | 51.8% |  |  |  |  |  |  |  |  |  | 
20 | COc1cc2c(c(OC)c1C)C(=O)/C(=C/c1ccc(F)cc1)O2 | 59% | 46.6% | 0% | 15% |  |  |  |  |  |  |  |  |  | 
21 | COc1cc2c(c(OC)c1C)C(=O)/C(=C/c1ccc(OCc3ccccc3)cc1)O2 | 91.9% | 14.2% | 2.3% | 40.8% |  |  |  |  |  |  |  |  |  | 
22 | CN(C)c1ccc(/C=C2\Oc3cc(O)cc(O)c3C2=O)cc1 | 78.9% | 54.2% | 3% | 46.6% |  | 27.8% |  | 0% | 16.9% | 100% |  |  |  | 
23 | COc1ccc(/C=C2\Oc3cc(O)cc(O)c3C2=O)cc1OC | 82.6% | 48% | 12.3% | 48.1% |  |  |  |  |  |  |  |  |  | 
24 | COc1cc(/C=C2\Oc3cc(O)cc(O)c3C2=O)cc(OC)c1O | 0% | 0% | 5% | 10% |  |  |  |  |  |  |  |  |  | 
25 | O=C1/C(=C/c2ccccc2)Oc2cc(O)cc(O)c21 | 96.5% | 50.1% | 19.9% | 49.3% |  |  |  |  | 15.3% | 100% |  |  | 100% | 
26 | O=C1/C(=C/c2ccc3c(c2)OCO3)Oc2cc(O)cc(O)c21 | 8.7% | 0% | 5% | 10% |  |  |  |  |  |  |  |  |  | 
27 | COc1ccc(/C=C2\Oc3cc(OC)cc(OC)c3C2=O)cc1 [4,4',6-TRIMETHOXY-AURONE] | 87.8% | 72.3% | 18.6% | 62.8% | 63.2% |  |  |  |  |  |  |  |  | 
